Patent US11678682B2, “Phosphor composition having selected surface coatings” (IMMUNOLIGHT, LLC, priority 2013, dated 2023)
Where two headings read alike, the source gives them in different places.

Tests used:
B16 cancer cells = test: Clonogenic cell kill (surviving colonies) with x-ray stimulated phosphor mixtures with and without psoralen (AMT); type: cell-based
Description: Accordingly, combinations of more than two “visible” phosphors can be used in this invention. Discussed below are x-ray settings and mass ratios for clonogenic cell kill experiments. F1 refers to the insertion of an aluminum filter into the x-ray beam to act as a filter.
Psoralen is known to be activated by UV light in the range from 300 to 400 nm. Thus, a measure of cell kill would normally be assumed to be an indirect measure of the internal generation of UV light.
FIGS. 18A and 18B is a plotted cell kill comparison (shown here as the number of surviving colonies) between B16 cancer cells treated with and without psoralen (i.e., AMT) with different phosphor mixtures, but otherwise being x-ray stimulated and containing the multiple phosphor combinations noted above. On these drawings, LDLE=low xRT dose, low energy; HDHE=high xRT dose, high energy.

[1] = test system: human bladder cancer cells; conditions: cited from earlier work
[2] = test system: cisplatin-resistant cells; conditions: photolyzed complex; cited from earlier work
cells = cells kept in the dark compared to those exposed to light; cited from earlier work

Compound: O=c1ccc2cc3ccoc3cc2o1 [psoralen]
- cell kill (number of surviving colonies), with versus without psoralen (FIGS. 18A and 18B) (B16 cancer cells; B16 cells, x-ray stimulated RYG/FYG phosphor mixtures): improved cell kill
- clonogenic colony survival, with versus without psoralen (FIG. 19C) (B16 cancer cells; flamingo, yellow, green FYG phosphor combination): pronounced cell kill
- cell kill, with versus without psoralen (FIGS. 19A and 19B) (B16 cancer cells; higher kVp x-ray conditions): does not show an increased kill

Compound: Cis,trans,cis-[Pt(N3)2(OH)2(NH3)2]
- growth inhibition ([1]; cells treated with the complex and kept in the dark): very little growth inhibition
- growth inhibition ([1]; photolyzed complex): inhibits the growth
- growth inhibition [2]: inhibits the growth

Compound: NCCN.[Cl][Pt]([Cl])([I])[I] [[PtCl2I2(en)]]
- cytotoxicity, dark versus light (cells): no difference in cytotoxicity
